From patent publication US12310364B2, “Safened compositions comprising pyridine carboxylate herbicides and cloquintocet” (Corteva Agriscience LLC, priority 2018, dated 2025)

Test system: Matricaria chamomilla (wild chamomile), MATCH
Assay: Greenhouse postemergence trial, visual injury on wild chamomile
Type: in vivo
Details: herbicide alone 20 g/ha
Procedure: Greenhouse Trial Methodology-Evaluation of Postemergence Herbicidal […] in Crops […] When required to ensure good germination and healthy plants, a fungicide treatment and/or other chemical or physical treatment was applied. The plants were grown for 7-36 days (d) in a greenhouse with an approximate 14-hour (h) photoperiod which was maintained at about 23° C. during the day and 22° C. during the night. Nutrients and water were added on a regular basis and supplemental lighting was provided with overhead metal halide 1000-Watt lamps as necessary. The plants were employed for testing when they reached the second or third true leaf stage. Emulsifiable concentrates of each of each pyridine carboxylate herbicide (Compound A or Compound B) were prepared at 100 grams acid equivalent per liter (g ae/L). […] The concentrated stock solutions were further diluted with an aqueous mixture of 1.25% […] or MSO® Concentrate with LECI-TECH® to obtain stock solutions at reduced application rates for each herbicide. Spray solutions of the herbicide combinations (Compound A or Compound B plus safener) were prepared by adding weighed amounts or aliquots of the safener to the stock solutions of Compound A or Compound B to form 12-mL spray solutions in two-way combinations. […] Control plants were sprayed in the same manner with the solvent blank. All herbicide (component a) application rates are given as “g ae/ha” and all safener (component b) application rates are given as “g ai/ha.” The treated plants and control plants were placed in a greenhouse as described above and watered by sub-irrigation to prevent wash-off of the test compounds.

N#CCOC(=O)c1nc(-c2ccc3cc[nH]c3c2F)c(F)c(N)c1Cl [Compound A, cyanomethyl 4-amino-3-chloro-5-fluoro-6-(7-fluoro-1H-indol-6-yl)pyridine-2-carboxylate]
% visual injury, Ob: 50%
